Source: PubChem BioAssay (NCI)
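In this assay, cells in 96-well plates receive the compound at five concentrations for 48 hours. Endpoints are linearly interpolated between the surrounding concentrations. TGI: concentration producing complete growth inhibition.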

Key:
Test in all cases: NCI-60 cell line screen, 48 h
UO-31 renal = test system: UO-31 renal
SN12C renal = test system: SN12C renal
MDA-MB-231 breast = test system: MDA-MB-231 breast
T-47D breast = test system: T-47D breast
ACHN renal = test system: ACHN renal
DU-145 prostate = test system: DU-145 prostate
NCI/ADR-RES ovarian = test system: NCI/ADR-RES ovarian
HOP-62 NSCLC = test system: HOP-62 NSCLC
IGROV1 ovarian = test system: IGROV1 ovarian
M14 melanoma = test system: M14 melanoma
OVCAR-8 ovarian = test system: OVCAR-8 ovarian
A498 renal = test system: A498 renal
HS 578T breast = test system: HS 578T breast
NCI-H460 lung = test system: NCI-H460 lung
U251 CNS = test system: U251 CNS
KM12 colon = test system: KM12 colon
MDA-MB-435 = test system: MDA-MB-435
COLO 205 colon = test system: COLO 205 colon
MCF7 breast = test system: MCF7 breast
SNB-75 CNS = test system: SNB-75 CNS
TK-10 renal = test system: TK-10 renal
SK-MEL-5 melanoma = test system: SK-MEL-5 melanoma
OVCAR-5 ovarian = test system: OVCAR-5 ovarian
EKVX NSCLC = test system: EKVX NSCLC
LOX IMVI melanoma = test system: LOX IMVI melanoma
UACC-62 melanoma = test system: UACC-62 melanoma
NCI-H23 lung = test system: NCI-H23 lung
NCI-H226 lung = test system: NCI-H226 lung
NCI-H522 lung = test system: NCI-H522 lung
SK-MEL-2 melanoma = test system: SK-MEL-2 melanoma
SK-MEL-28 melanoma = test system: SK-MEL-28 melanoma
SK-OV-3 ovarian = test system: SK-OV-3 ovarian
RPMI-8226 leukemia = test system: RPMI-8226 leukemia
SR leukemia = test system: SR leukemia
MOLT-4 leukemia = test system: MOLT-4 leukemia
BT-549 breast = test system: BT-549 breast
SF-295 CNS = test system: SF-295 CNS
K-562 leukemia = test system: K-562 leukemia
PC-3 prostate = test system: PC-3 prostate
SW-620 colon = test system: SW-620 colon
HT29 colon = test system: HT29 colon
786-0 renal = test system: 786-0 renal
HOP-92 NSCLC = test system: HOP-92 NSCLC
RXF 393 renal = test system: RXF 393 renal
SF-268 CNS = test system: SF-268 CNS
A549 NSCLC = test system: A549 NSCLC
HCT-15 colon = test system: HCT-15 colon
CAKI-1 renal = test system: CAKI-1 renal
CCRF-CEM leukemia = test system: CCRF-CEM leukemia
OVCAR-3 ovarian = test system: OVCAR-3 ovarian
HCT-116 colon = test system: HCT-116 colon
SNB-19 CNS = test system: SNB-19 CNS
SF-539 CNS = test system: SF-539 CNS
UACC-257 melanoma = test system: UACC-257 melanoma
HL-60(TB) leukemia = test system: HL-60(TB) leukemia
MALME-3M melanoma = test system: MALME-3M melanoma

## Oc1ccc(SCc2cc(O)c(O)c(O)c2)cc1
UO-31 renal
  TGI: > 100 µM
SN12C renal
  TGI: 74.9 µM
MDA-MB-231 breast
  TGI: > 100 µM
T-47D breast
  TGI: > 100 µM
ACHN renal
  TGI: > 100 µM
DU-145 prostate
  TGI: > 100 µM
NCI/ADR-RES ovarian
  TGI: 58.5 µM
HOP-62 NSCLC
  TGI: 56.4 µM
IGROV1 ovarian
  TGI: 57.8 µM
M14 melanoma
  TGI: 33.1 µM
OVCAR-8 ovarian
  TGI: 49.6 µM
A498 renal
  TGI: > 100 µM
HS 578T breast
  TGI: > 100 µM
NCI-H460 lung
  TGI: 36.7 µM
U251 CNS
  TGI: > 100 µM
KM12 colon
  TGI: 42.6 µM
MDA-MB-435
  TGI: > 100 µM
COLO 205 colon
  TGI: 36.9 µM
MCF7 breast
  TGI: 38.4 µM
SNB-75 CNS
  TGI: > 100 µM
TK-10 renal
  TGI: > 100 µM
SK-MEL-5 melanoma
  TGI: 40.7 µM
OVCAR-5 ovarian
  TGI: 50.7 µM
EKVX NSCLC
  TGI: > 100 µM
LOX IMVI melanoma
  TGI: > 100 µM
UACC-62 melanoma
  TGI: 41.4 µM
NCI-H23 lung
  TGI: > 100 µM
NCI-H226 lung
  TGI: 52.1 µM
NCI-H522 lung
  TGI: 61.4 µM
SK-MEL-2 melanoma
  TGI: > 100 µM
SK-MEL-28 melanoma
  TGI: > 100 µM
SK-OV-3 ovarian
  TGI: > 100 µM
RPMI-8226 leukemia
  TGI: 78.6 µM
SR leukemia
  TGI: > 100 µM
MOLT-4 leukemia
  TGI: > 100 µM
BT-549 breast
  TGI: 85.9 µM
SF-295 CNS
  TGI: 29.8 µM
K-562 leukemia
  TGI: > 100 µM
PC-3 prostate
  TGI: > 100 µM
SW-620 colon
  TGI: > 100 µM
HT29 colon
  TGI: 48.1 µM
786-0 renal
  TGI: > 100 µM
HOP-92 NSCLC
  TGI: > 100 µM
RXF 393 renal
  TGI: > 100 µM
SF-268 CNS
  TGI: > 100 µM
A549 NSCLC
  TGI: > 100 µM
HCT-15 colon
  TGI: > 100 µM
CAKI-1 renal
  TGI: > 100 µM
CCRF-CEM leukemia
  TGI: 74.4 µM
OVCAR-3 ovarian
  TGI: > 100 µM
HCT-116 colon
  TGI: 34.2 µM
SNB-19 CNS
  TGI: > 100 µM
SF-539 CNS
  TGI: > 100 µM
UACC-257 melanoma
  TGI: > 100 µM
HL-60(TB) leukemia
  TGI: > 100 µM
MALME-3M melanoma
  TGI: > 100 µM
